Columns and labels:
RXRα = target: T1, RXRα (Homo sapiens, UniProt P19793); assay: Receptor transactivation assay, RXRα (CV-1 cells, rCRBPII/RXRE-tk-Luc reporter); assay type: cell-based; conditions: 20h
T1 sequence (P19793 1-462): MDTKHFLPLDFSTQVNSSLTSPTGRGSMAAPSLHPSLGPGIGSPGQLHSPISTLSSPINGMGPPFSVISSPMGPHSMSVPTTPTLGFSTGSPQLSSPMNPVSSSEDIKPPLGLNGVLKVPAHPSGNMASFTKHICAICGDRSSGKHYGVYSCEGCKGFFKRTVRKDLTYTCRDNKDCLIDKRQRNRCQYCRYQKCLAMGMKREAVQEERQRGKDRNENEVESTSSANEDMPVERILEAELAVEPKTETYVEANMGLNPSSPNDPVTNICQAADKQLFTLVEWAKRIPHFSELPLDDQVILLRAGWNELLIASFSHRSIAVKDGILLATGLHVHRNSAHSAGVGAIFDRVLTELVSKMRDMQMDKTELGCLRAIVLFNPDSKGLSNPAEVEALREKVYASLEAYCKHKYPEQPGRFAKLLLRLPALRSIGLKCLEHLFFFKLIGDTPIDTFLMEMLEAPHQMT
Excerpt: (§1) For RXR: CV-1 cells were transfected with rCRBPII/RXRE-tk-Luc reporter gene and an expression vector for RXRα, β, or γ. For RAR: CV-1 cells were transfected with ERE-tk-Luc reporter gene and an expression vector for the appropriate ER-RARα, β, or γ. ER-RARs are fusion proteins, composed of the estrogen receptor (ER) DNA binding domain fused to the ligand binding domain of RARs. This system eliminates interference by the low level of endogenous RAR activity in CV1 cells as the readout comes only from the transfected ER-RAR. For PPARγ: CV-1 cells were transfected with 3x(rAOX/DR1)-tk-Luc reporter gene and an expression vector for PPARγ; for FXR: CV-1 cells were transfected with 3x(IBABP/IR1)-tk-Luc reporter gene and vectors for FXR and RXRα; for LXR: CV-1 cells were transfected with 3x(PLTP/LXRE)-tk-Luc reporter gene with vectors for LXRα or LXRβ. For Nurr1: COS7 cells were transfected with 3xNBRE-tk-luc reporter gene and full length Nurr1 with or without full-length RXRα plasmid. […] Luciferase data were normalized to co-transfected β-gal activity. Luciferase activity is expressed as percent of maximal activity obtained using specific agonists 9-cis-retinoic acid (RXR), retinoic acid (RAR), rosiglitazone (PPARγ), GW4064 (FXR), T0901317 (LXR).

[1] = target: T2, farnesoid X receptor (FXR) (Homo sapiens, UniProt Q96RI1); assay: Receptor transactivation assay, FXR (CV-1 cells, FXR and RXRα vectors); assay type: cell-based; conditions: at physiological concentrations
T2 sequence (Q96RI1 1-486): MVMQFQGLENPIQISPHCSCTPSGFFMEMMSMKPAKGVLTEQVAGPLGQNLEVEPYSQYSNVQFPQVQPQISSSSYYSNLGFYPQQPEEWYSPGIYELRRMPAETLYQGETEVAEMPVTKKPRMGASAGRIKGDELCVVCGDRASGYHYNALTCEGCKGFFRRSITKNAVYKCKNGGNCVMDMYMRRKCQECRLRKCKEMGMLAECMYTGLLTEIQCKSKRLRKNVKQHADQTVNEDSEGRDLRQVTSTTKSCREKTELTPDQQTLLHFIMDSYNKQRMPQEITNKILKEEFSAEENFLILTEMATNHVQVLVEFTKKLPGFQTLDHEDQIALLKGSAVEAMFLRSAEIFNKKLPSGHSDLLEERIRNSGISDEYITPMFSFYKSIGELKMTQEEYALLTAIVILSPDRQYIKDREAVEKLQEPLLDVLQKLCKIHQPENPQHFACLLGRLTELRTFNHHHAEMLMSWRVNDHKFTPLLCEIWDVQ
T2 sequence (P19793 1-462 partner): T1 sequence (P19793 1-462)
Excerpt: as §1

LXRβ = LXRβ (Homo sapiens, UniProt P55055); assay: Receptor transactivation assay, LXRβ (CV-1 cells); assay type: cell-based; conditions: at physiological concentrations
Excerpt: For PPARγ: CV-1 cells were transfected with 3x(rAOX/DR1)-tk-Luc reporter gene and an expression vector for PPARγ; for FXR: CV-1 cells were transfected with 3x(IBABP/IR1)-tk-Luc reporter gene and vectors for FXR and RXRα; for LXR: CV-1 cells were transfected with 3x(PLTP/LXRE)-tk-Luc reporter gene with vectors for LXRα or LXRβ. […] Luciferase data were normalized to co-transfected β-gal activity. Luciferase activity is expressed as percent of maximal activity obtained using specific agonists 9-cis-retinoic acid (RXR), retinoic acid (RAR), rosiglitazone (PPARγ), GW4064 (FXR), T0901317 (LXR).

[2] = Plasma protein binding by equilibrium dialysis, human plasma; assay type: in vitro ADME; conditions: K3EDTA control plasma, 37°C, read-out: plasma protein binding, bound (converted)
Method: SD male rats were grouped into four groups: vehicle, 1mg/kg/day, 3mg/kg/day and 10mg/kg/day. Rats were treated with the designated dose by daily gavage. Acute plasma PK was conducted on day one and acute-on-chronic plasma PK was conducted on day 24. Pharmacokinetic assessment was conducted by collecting of blood at baseline (prior gavage), 0.25, 0.5, 1, 2, 4, 8, 12 and 24h post gavage. […] The spiked plasma was dialyzed at 37°C against an isotonic sodium phosphate buffer to achieve equilibrium. At the end of dialysis, the plasma and buffer level of IRX4204 were quantified by LC/MS/MS.

6-OHDA lesioned rats [3] = assay: TH-immunoreactive neuron count in the SN of 6-OHDA lesioned rats; assay type: in vivo, rat; conditions: 10mg/kg/day gavage for three weeks, compared to the vehicle-treated group, p < 0.05
Method: (§2) All surgical procedures were performed under general anesthesia with ketamine/xylazine. 2μl 6-OHDA (20 mg/ml in 0.02% ascorbic acid) was stereotaxically injected into the right striatum of male SD rats. Lesion coordinates were set according to bregma and dura in mm: ML-3.7; AP-1.0; DV-5.5. The injection rate was 2μl/5 min and the injecting needle was left for 2 minutes after injection to avoid back flow. Apomorphine-induced rotations (see below) were assessed three days post-lesion and rats with ≥ 30 full contralateral rotation/30 minutes were included in the study.
Rats were randomly grouped into vehicle control group (n = 11) and drug treatment group (n = 10). […] The control group received DMSO/corn oil (vehicle). The treatment continued for three weeks.
The caudal portion of the brains were sectioned in the coronal plane on a cryostat at 12 μm. From a random start corresponding to SNpc position, every 12th section was selected -, fixed with 4% paraformaldehyde and processed for tyrosine hydroxylase (TH) staining using mouse monoclonal anti-TH antibody (1:2000, Chemicon) and the Vectastain Elite ABC kit (Vector Lab) according to manufacturer's instruction. TH positive neurons were counted as described.

6-OHDA lesioned rats [4] = assay: Dopamine and metabolites in the striatum by HPLC, 6-OHDA lesioned rats; assay type: in vivo, rat; conditions: 10mg/kg/day gavage for three weeks, p < 0.01
Method: as §2
Rats were randomly grouped into vehicle control group (n = 11) and drug treatment group (n = 10). […] The control group received DMSO/corn oil (vehicle). […]
The left and right striatum were isolated and homogenized with artificial cerebrospinal fluid and centrifuged at x10,000 g for 15 minutes. Protein content of the supernatant was measured by Bradford assay (Bio-Rad). Dopamine, HVA and DOPAC were measured using an isocratic HPLC system with electrochemical detection, consisting of a pump (ESA model 582 [ESA Chelmsford, MA]), automatic injector (ESA model 542 Autosampler), and a Coulochem III detector (ESA) in conjunction with a guard cell (ESA model 5020) and an analytical cell (ESA model 5014B). […] Data were collected and analyzed using the EZStart software (Agilent Technologies, Santa Clara, CA). […]

LXRβ, sequence (P55055 whole entry, one chain of several): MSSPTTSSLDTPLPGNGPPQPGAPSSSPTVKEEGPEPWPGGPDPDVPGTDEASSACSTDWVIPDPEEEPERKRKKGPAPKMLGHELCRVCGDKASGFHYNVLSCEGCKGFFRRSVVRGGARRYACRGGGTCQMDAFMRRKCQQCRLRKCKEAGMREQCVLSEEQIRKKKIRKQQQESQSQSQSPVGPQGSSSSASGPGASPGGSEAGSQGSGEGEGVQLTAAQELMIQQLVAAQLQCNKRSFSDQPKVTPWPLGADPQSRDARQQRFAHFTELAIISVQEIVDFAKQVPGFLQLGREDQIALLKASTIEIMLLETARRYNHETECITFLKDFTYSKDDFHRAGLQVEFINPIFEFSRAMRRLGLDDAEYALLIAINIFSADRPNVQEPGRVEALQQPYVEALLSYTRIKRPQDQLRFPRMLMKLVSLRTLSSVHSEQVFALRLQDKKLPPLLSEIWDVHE

Compound: CC(/C=C/[C@@H]1C[C@]1(C)c1ccc2c(c1)C(C)(C)CCC2(C)C)=C\C(=O)O [IRX4204]
- concentration that fully activates RXRα (RXRα): 1 nM
- concentration that partially activates RXRα (RXRα): 0.1 nM
- activation of RXR heterodimer of FXR [1]: does not activate
- activation of RXR heterodimer of LXRβ (LXRβ): does not activate
- fraction unbound at 1 ug/ml [2]: 0.0064
- loss of TH-immunoreactive neurons in the SN (6-OHDA lesioned rats [3]): significantly reduced the loss
- striatal dopamine loss in the lesioned side (6-OHDA lesioned rats [4]): much greater in the vehicle-treated group relative to the IRX4204 group
